Data from patent US6737383B1, “Herbicidal oxadiazolidines” (priority 1999, dated 2004).

Columns and labels:
rice = test: Test B flood test rice; assay type: in vivo, Oryza sativa
In short: (§1)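 Plants were grown to the 2-leaf stage before treatment with test chemical, then held in a greenhouse for twelve to sixteen days. Injury was visually rated against untreated controls on a 0–10 scale, where 0 is no effect and 10 is complete control.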

bedstraw = test: Test B pre/postemergence bedstraw; assay type: in vivo, Galium aparine; conditions: Postemergence, Rate 1000 g/ha; scale 0 to 10 (0 no effect, 10 complete control)
In short: (§2)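 Test chemicals in a non-phytotoxic solvent mixture with surfactant were sprayed preemergence onto planted seeds and postemergence onto plants 2 to 18 cm tall (1- to 4-leaf stage). After twelve to sixteen days in a greenhouse, injury was visually rated against untreated controls from 0 (no effect) to 10 (complete control).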

pigweed = test: Test B pre/postemergence pigweed; assay type: in vivo, Amaranthus retroflexus; conditions: for Redroot pigweed plant response rating: Postemergence; for Plant response rating, Redroot pigweed: Preemergence
In short: as §2

giant foxtail = test: Test B pre/postemergence giant foxtail; assay type: in vivo, Setaria faberii; conditions: for Giant foxtail plant response rating: Postemergence; for Plant response rating, Giant foxtail: Preemergence
In short: as §2

crabgrass = test: Test B pre/postemergence crabgrass; assay type: in vivo, Digitaria sanguinalis; conditions: for Crabgrass plant response rating: Postemergence; for Plant response rating, Crabgrass: Preemergence
In short: as §2

wheat = test: Test B pre/postemergence wheat; assay type: in vivo, Triticum aestivum; conditions: for Wheat plant response rating: Postemergence; for Plant response rating, Wheat: Preemergence
In short: as §2

purple nutsedge = test: Test B pre/postemergence purple nutsedge; assay type: in vivo, Cyperus rotundus; conditions: for Nutsedge plant response rating: Postemergence; for Plant response rating, Nutsedge: Preemergence
In short: as §2

blackgrass = test: Test B pre/postemergence blackgrass; assay type: in vivo, Alopecurus myosuroides; conditions: for Blackgrass plant response rating: Postemergence; for Plant response rating, Blackgrass: Preemergence
In short: as §2

soybean = test: Test B pre/postemergence soybean; assay type: in vivo, Glycine max; conditions: for Soybean plant response rating: Postemergence; for Plant response rating, Soybean: Preemergence
In short: as §2

velvetleaf = test: Test B pre/postemergence velvetleaf; assay type: in vivo, Abutilon theophrasti; conditions: for Velvetleaf plant response rating: Postemergence; for Plant response rating, Velvetleaf: Preemergence
In short: as §2

morningglory = test: Test B pre/postemergence morningglory; assay type: in vivo, Ipomoea hederacea; conditions: for Morningglory plant response rating: Postemergence; for Plant response rating, Morningglory: Preemergence
In short: as §2

surinam grass = test: Test B pre/postemergence surinam grass; assay type: in vivo, Brachiaria decumbens; conditions: for B. signalgrass plant response rating: Postemergence; for Plant response rating, B. signalgrass: Preemergence
In short: as §2

smallflower flatsedge = test: Test B flood test smallflower flatsedge; assay type: in vivo, Cyperus difformis
In short: as §1

duck salad = test: Test B flood test duck salad; assay type: in vivo, Heteranthera limosa
In short: as §1

corn = test: Test B pre/postemergence corn; assay type: in vivo, Zea mays; conditions: for Corn plant response rating: Postemergence; for Plant response rating, Corn: Preemergence
In short: as §2

cocklebur = test: Test B pre/postemergence cocklebur; assay type: in vivo, Xanthium strumarium; conditions: for Cocklebur plant response rating: Postemergence; for Plant response rating, Cocklebur: Preemergence
In short: as §2

rape = test: Test B pre/postemergence rape; assay type: in vivo, Brassica napus; conditions: for Rape plant response rating: Postemergence; for Plant response rating, Rape: Preemergence
In short: as §2

bamyardgrass = test: Test B flood test barnyardgrass; assay type: in vivo, Echinochloa crus-galli
In short: as §1

sugar beet = test: Test B pre/postemergence sugar beet; assay type: in vivo, Beta vulgaris; conditions: for Sugarbeets plant response rating: Postemergence; for Plant response rating, Sugarbeets: Preemergence
In short: as §2

wild oat = test: Test B pre/postemergence wild oat; assay type: in vivo, Avena fatua; conditions: for Wild oats plant response rating: Postemergence; for Plant response rating, Wild oats: Preemergence
In short: as §2

[1] = Pre-emergence, Rate 1000 g/ha, scale 0 to 10 (0 no effect, 10 complete control)
[2] = Rate 125 g/ha, under heading Pre-emergence, flood test species, visual evaluation after twelve to sixteen days
[3] = Rate 250 g/ha, Pre-emergence (flood test species), scale 0 to 10, 0 is no effect, 10 is complete control
[4] = Rate 500 g/ha, Pre-emergence section of Table B, 0 to 10 scale (0 no effect, 10 complete control)
[5] = Rate 125 g/ha, scale of 0 to 10 where 0 is no effect and 10 is complete control
[6] = Rate 1000 g/ha, scale 0 to 10 (0 no effect, 10 complete control)
[7] = Rate 250 g/ha, scale 0 to 10, 0 is no effect, 10 is complete control
[8] = Rate 500 g/ha, scale 0 to 10, 0 is no effect, 10 is complete control
[9] = Rate 500 g/ha, scale of 0 to 10 where 0 is no effect and 10 is complete control
[10] = Rate 250 g/ha, scale 0 to 10 (0 no effect, 10 complete control)

COC(=O)C(c1ccccc1)n1c(=O)on(C(=O)N(c2ccc(F)cc2)C(C)C)c1=O (centres unmarked) [Compound 677] was tested, and the “Rice plant response rating” value (rice; [1]) was 0, the “Rice plant response rating (0 to 10 scale, 0 is no effect, 10 is complete control)” value (rice; [2]) was 0 and the “Rice plant response rating” value (rice; [3]) was 0. For the same compound, the “Rice plant response rating” value (rice; [4]) was 0, the “Bedstraw plant response rating” value (bedstraw) was 0 and the “Redroot pigweed plant response rating” value (pigweed; [5]) was 2. For the same compound, the “Redroot pigweed plant response rating” value (pigweed; [6]) was 4, the “Plant response rating, Redroot pigweed” value (pigweed; [5]) was 4 and the “Redroot pigweed plant response rating” value (pigweed; [7]) was 3. The “Redroot pigweed plant response rating” value (pigweed; [8]) was 3, the “Plant response rating, Redroot pigweed” value (pigweed; [6]) was 8 and the “Giant foxtail plant response rating” value (giant foxtail; [5]) was 0. For the same compound, the “Giant foxtail plant response rating” value (giant foxtail; [6]) was 5, the “Plant response rating, Giant foxtail” value (giant foxtail; [5]) was 5 and the “Plant response rating, Giant foxtail” value (giant foxtail; [9]) was 10. The “Giant foxtail plant response rating” value (giant foxtail; [7]) was 2, the “Giant foxtail plant response rating” value (giant foxtail; [8]) was 4 and the “Plant response rating, Giant foxtail” value (giant foxtail; [6]) was 10. The “Crabgrass plant response rating” value (crabgrass; [5]) was 0, the “Crabgrass plant response rating” value (crabgrass; [6]) was 6 and the “Plant response rating, Crabgrass” value (crabgrass; [5]) was 3. For the same compound, the “Plant response rating, Crabgrass” value (crabgrass; [10]) was 6, the “Plant response rating, Crabgrass” value (crabgrass; [9]) was 7 and the “Crabgrass plant response rating” value (crabgrass; [7]) was 0. For the same compound, the “Crabgrass plant response rating” value (crabgrass; [8]) was 4, the “Plant response rating, Crabgrass” value (crabgrass; [6]) was 9 and the “Wheat plant response rating” value (wheat; [5]) was 0. The “Wheat plant response rating” value (wheat; [6]) was 0, the “Plant response rating, Wheat” value (wheat; [5]) was 0 and the “Plant response rating, Wheat” value (wheat; [9]) was 0. The “Wheat plant response rating” value (wheat; [7]) was 0, the “Wheat plant response rating” value (wheat; [8]) was 0 and the “Plant response rating, Wheat” value (wheat; [6]) was 0. For the same compound, the “Nutsedge plant response rating” value (purple nutsedge; [5]) was 0, the “Nutsedge plant response rating” value (purple nutsedge; [6]) was 0 and the “Plant response rating, Nutsedge” value (purple nutsedge; [5]) was 0. The “Plant response rating, Nutsedge” value (purple nutsedge; [9]) was 0, the “Nutsedge plant response rating” value (purple nutsedge; [7]) was 0 and the “Nutsedge plant response rating” value (purple nutsedge; [8]) was 0. For the same compound, the “Plant response rating, Nutsedge” value (purple nutsedge; [6]) was 0, the “Blackgrass plant response rating” value (blackgrass; [5]) was 0 and the “Blackgrass plant response rating” value (blackgrass; [6]) was 4. The “Plant response rating, Blackgrass” value (blackgrass; [5]) was 0, the “Plant response rating, Blackgrass” value (blackgrass; [10]) was 0 and the “Plant response rating, Blackgrass” value (blackgrass; [9]) was 0. For the same compound, the “Blackgrass plant response rating” value (blackgrass; [7]) was 0, the “Blackgrass plant response rating” value (blackgrass; [8]) was 1 and the “Plant response rating, Blackgrass” value (blackgrass; [6]) was 4. The “Soybean plant response rating” value (soybean; [5]) was 0, the “Soybean plant response rating” value (soybean; [6]) was 7 and the “Plant response rating, Soybean” value (soybean; [5]) was 0. For the same compound, the “Plant response rating, Soybean” value (soybean; [9]) was 0, the “Soybean plant response rating” value (soybean; [7]) was 1 and the “Soybean plant response rating” value (soybean; [8]) was 2. For the same compound, the “Plant response rating, Soybean” value (soybean; [6]) was 0, the “Velvetleaf plant response rating” value (velvetleaf; [5]) was 0 and the “Velvetleaf plant response rating” value (velvetleaf; [6]) was 3. The “Plant response rating, Velvetleaf” value (velvetleaf; [5]) was 0, the “Plant response rating, Velvetleaf” value (velvetleaf; [9]) was 0 and the “Velvetleaf plant response rating” value (velvetleaf; [7]) was 0. The “Velvetleaf plant response rating” value (velvetleaf; [8]) was 3, the “Plant response rating, Velvetleaf” value (velvetleaf; [6]) was 0 and the “Morningglory plant response rating” value (morningglory; [5]) was 2. For the same compound, the “Plant response rating, Morningglory” value (morningglory; [5]) was 0, the “Plant response rating, Morningglory” value (morningglory; [9]) was 0 and the “Morningglory plant response rating” value (morningglory; [7]) was 4. For the same compound, the “Morningglory plant response rating” value (morningglory; [8]) was 7, the “Plant response rating, Morningglory” value (morningglory; [6]) was 0 and the “B. signalgrass plant response rating” value (surinam grass; [5]) was 0. The “B. signalgrass plant response rating” value (surinam grass; [6]) was 1, the “Plant response rating, B. signalgrass” value (surinam grass; [5]) was 0 and the “Plant response rating, B. signalgrass” value (surinam grass; [10]) was 3. For the same compound, the “Plant response rating, B. signalgrass” value (surinam grass; [9]) was 5, the “B. signalgrass plant response rating” value (surinam grass; [7]) was 0 and the “B. signalgrass plant response rating” value (surinam grass; [8]) was 0. The “Plant response rating, B. signalgrass” value (surinam grass; [6]) was 9, the “S. Flatsedge plant response rating” value (smallflower flatsedge; [1]) was 0 and the “S. Flatsedge plant response rating (0 to 10 scale, 0 is no effect, 10 is complete control)” value (smallflower flatsedge; [2]) was 0. The “S. Flatsedge plant response rating” value (smallflower flatsedge; [3]) was 0, the “S. Flatsedge plant response rating” value (smallflower flatsedge; [4]) was 0 and the “Ducksalad plant response rating” value (duck salad; [1]) was 0. For the same compound, the “Ducksalad plant response rating (0 to 10 scale, 0 is no effect, 10 is complete control)” value (duck salad; [2]) was 0, the “Ducksalad plant response rating” value (duck salad; [3]) was 0 and the “Ducksalad plant response rating” value (duck salad; [4]) was 0. For the same compound, the “Corn plant response rating” value (corn; [5]) was 0, the “Corn plant response rating” value (corn; [6]) was 0 and the “Plant response rating, Corn” value (corn; [5]) was 0. The “Plant response rating, Corn” value (corn; [10]) was 0, the “Plant response rating, Corn” value (corn; [9]) was 0 and the “Corn plant response rating” value (corn; [7]) was 0. The “Corn plant response rating” value (corn; [8]) was 0, the “Plant response rating, Corn” value (corn; [6]) was 0 and the “Cocklebur plant response rating” value (cocklebur; [5]) was 0. For the same compound, the “Cocklebur plant response rating” value (cocklebur; [6]) was 1, the “Plant response rating, Cocklebur” value (cocklebur; [5]) was 0 and the “Plant response rating, Cocklebur” value (cocklebur; [10]) was 0. The “Plant response rating, Cocklebur” value (cocklebur; [9]) was 0, the “Cocklebur plant response rating” value (cocklebur; [7]) was 0 and the “Cocklebur plant response rating” value (cocklebur; [8]) was 1. The “Plant response rating, Cocklebur” value (cocklebur; [6]) was 0, the “Rape plant response rating” value (rape; [5]) was 0 and the “Rape plant response rating” value (rape; [6]) was 0. For the same compound, the “Plant response rating, Rape” value (rape; [5]) was 0, the “Plant response rating, Rape” value (rape; [9]) was 0 and the “Rape plant response rating” value (rape; [7]) was 0. The “Rape plant response rating” value (rape; [8]) was 0, the “Plant response rating, Rape” value (rape; [6]) was 3 and the “Barnyardgrass plant response rating” value (bamyardgrass; [1]) was 0. For the same compound, the “Barnyardgrass plant response rating (0 to 10 scale, 0 is no effect, 10 is complete control)” value (bamyardgrass; [2]) was 0, the “Barnyardgrass plant response rating” value (bamyardgrass; [3]) was 0 and the “Barnyardgrass plant response rating” value (bamyardgrass; [4]) was 0. The “Sugarbeets plant response rating” value (sugar beet; [5]) was 0, the “Sugarbeets plant response rating” value (sugar beet; [6]) was 1 and the “Plant response rating, Sugarbeets” value (sugar beet; [5]) was 0. For the same compound, the “Plant response rating, Sugarbeets” value (sugar beet; [9]) was 0, the “Sugarbeets plant response rating” value (sugar beet; [7]) was 0 and the “Sugarbeets plant response rating” value (sugar beet; [8]) was 1. The “Plant response rating, Sugarbeets” value (sugar beet; [6]) was 7, the “Wild oats plant response rating” value (wild oat; [5]) was 0 and the “Wild oats plant response rating” value (wild oat; [6]) was 0. For the same compound, the “Plant response rating, Wild oats” value (wild oat; [5]) was 0, the “Plant response rating, Wild oats” value (wild oat; [9]) was 0 and the “Wild oats plant response rating” value (wild oat; [7]) was 0. For the same compound, the “Wild oats plant response rating” value (wild oat; [8]) was 0 and the “Plant response rating, Wild oats” value (wild oat; [6]) was 2.
